# Patent publication US8882853B2, “Environmentally-friendly solvent for washing and dry-cleaning, and laundry composition including the same” (LG Household & Health Care Ltd., priority 2011, dated 2014)
# Read-outs that look alike come from different tables or passages of the source.
# Tests used:
# [1] = Drying rate of solvent impregnated in standard cotton samples at room temperature; format: physicochemical; conditions: dried for 8 hours, room temperature (25° C.), relative humidity of 30%
# Method: Each solvent used in Comparative Examples 1 to 7 and Examples 1 to 4 was evaluated for its drying rate at room temperature which is considered an important factor in dry-cleaning. The initial weight (A) of standard cotton samples was each measured. After impregnating each solvent or composition in a certain amount into the cotton samples, the weight (B) of the cotton samples was measured. A difference between weight (B) and weight (A) was calculated to determine the weight of each of the impregnated solvents. Then, the cotton samples in which each solvent was impregnated were dried for 8 hours under conditions of room temperature (25° C.) and a relative humidity of 30%. After drying, the weight of each cotton sample was measured and converted into a percentage relative to the initial impregnation weight to obtain a drying rate for each solvent.
# Solubility in water = format: physicochemical
# Description: There has been a limitation in the effectiveness of conventional solvents for dry-cleaning in removing water-based contaminants due to the hydrophobic property thereof. Accordingly, in order to relatively evaluate a cleaning effect on the removal of water-based contaminants, the water-containing capacity of solvents according to the present invention was compared with that of the conventional dry-cleaning solvents.
Compound,Drying rate (%) [1],Solubility (20° C.) (Solubility in water),Solubility (20° C.) (Solubility in water; result in words)
"O [Com. Ex. 1, Water]",100%,–,–
"ClC(Cl)=C(Cl)Cl [Com. Ex. 2, Perchloroethylene]",100%,0.015 g/ g/100 mL,–
"C[Si]1(C)O[Si](C)(C)O[Si](C)(C)O[Si](C)(C)O[Si](C)(C)O1 [Com. Ex. 4, Decamethyl-cyclopentasiloxane]",100%,–,Insol-
"COCC(O)CO (centres unmarked) [Com. Ex. 5, 3-Methoxy 1,2-propanol]",10.53%,–,–
"COCC(CO)OC (centres unmarked) [Com. Ex. 6, 2,3-Dimethoxy-1-propanol]",95.29%,–,–
"CC1(C)OCC(CO)O1 (centres unmarked) [Example 1, Acetone Glycerol]",100%,–,soluble

# The next lines start with results.
Drying rate (%) [1],Compound,Solubility (20° C.) (Solubility in water),Solubility (20° C.) (Solubility in water; result in words)
100%,"CCC1(C)OCC(CO)O1 (centres unmarked) [Example 2, Glycerol-Methyl Ethyl Ketone Ketal]",–,soluble
85.25%,"CC(C)CC1(C)OCC(CO)O1 (centres unmarked) [Example 3, Glycerol-Methyl Isobuthyl Ketone Ketal]",–,–
90.3%,"CCCC1OCC(CO)O1 (centres unmarked) [Example 4, Glycerol-Butylaldehyde Acetal]",–,soluble
